Experimental data taken from US6355620B1, “C-2 modified erythromycin derivatives” (Abbott Laboratories, priority 1999, dated 2002).

Assays:
Test in all cases: In vitro antibacterial activity, agar dilution MIC
Format in all cases: cell-based
[1] = tested on: Micrococcusluteus ATCC 4698; conditions: code PP, BHI agar, 35-37° C., 20 to 24 hours, unit assumed
Method: (§1) Representative compounds of the present invention were assayed in vitro for antibacterial activity as follows: Twelve petri dishes containing successive aqueous dilutions of the test compound mixed with 10 mL of sterilized Brain Heart Infusion (BHI) agar (Difco 0418-01-5) were prepared. Each plate was inoculated with 1:100 (or 1:10 for slow-growing strains, such as Micrococcus and Streptococcus) dilutions of up to 32 different microorganisms, using a Steers replicator block. The inoculated plates were incubated at 35-37° C. for 20 to 24 hours. In addition, a control plate, using BHI agar containing no test compound, was prepared and incubated at the beginning and end of each test.
(§2) An additional plate containing a compound having known susceptibility patterns for the organisms being tested and belonging to the same antibiotic class as the test compound was also prepared and incubated as a further control, as well as to provide test-to-test comparability.
(§3) After incubation, each plate was visually inspected. The minimum inhibitory concentration (MIC) was defined as the lowest concentration of drug yielding no growth, a slight haze, or sparsely isolated colonies on the inoculum spot as compared to the growth control.

Candida albicans CCH 442 = conditions: code TT, BHI agar, 35-37° C., 20 to 24 hours, unit assumed
Method: as §1, §2, §3

Escherichiacoli DC-2 = conditions: code SS, BHI agar, 35-37° C., 20 to 24 hours, unit assumed
Method: as §1, §2, §3

[2] = tested on: Streptococcus pyogenes 930; conditions: code MM, BHI agar, 35-37° C., 20 to 24 hours, unit assumed
Method: as §1, §2, §3

[3] = tested on: Staphylococcus epidermidis 3519; conditions: code HH, BHI agar, 35-37° C., 20 to 24 hours, unit assumed
Method: as §1, §2, §3

[4] = tested on: Streptococcus pyogenes PIU 2548; conditions: code NN, BHI agar, 35-37° C., 20 to 24 hours, unit assumed
Method: as §1, §2, §3

[5] = tested on: Nocardia Asteroides ATCC 99700; conditions: code VV, BHI agar, 35-37° C., 20 to 24 hours, unit assumed
Method: as §1, §2, §3

Escherichiacoli SS = conditions: code RR, BHI agar, 35-37° C., 20 to 24 hours, unit assumed
Method: as §1, §2, §3

[6] = tested on: Staphylococcus aureus NCTC 10649M; conditions: code EE, BHI agar, 35-37° C., 20 to 24 hours, unit assumed
Method: as §1, §2, §3

[7] = tested on: Staphylococcus aureus CMX 642A; conditions: code DD, BHI agar, 35-37° C., 20 to 24 hours, unit assumed
Method: as §1, §2, §3

[8] = tested on: Streptococcus agalactiae CMX 508; conditions: code KK, BHI agar, 35-37° C., 20 to 24 hours, unit assumed
Method: as §1, §2, §3

[9] = tested on: Staphylococcus aureus ATCC 6538P; conditions: code AA, BHI agar, 35-37° C., 20 to 24 hours, unit assumed
Method: as §1, §2, §3

[10] = tested on: Streptococcus Pneumonia 5649; conditions: code ZZA, BHI agar, 35-37° C., 20 to 24 hours, unit assumed
Method: as §1, §2, §3

[11] = tested on: Streptococcus pyogenes EES61; conditions: code LL, BHI agar, 35-37° C., 20 to 24 hours, unit assumed
Method: as §1, §2, §3

[12] = tested on: Haemophilislnfluenzae DILL AMP R; conditions: code WW, BHI agar, 35-37° C., 20 to 24 hours, unit assumed
Method: as §1, §2, §3

Escherichiacoli JUHL = conditions: code QQ, BHI agar, 35-37° C., 20 to 24 hours, unit assumed
Method: as §1, §2, §3

[13] = tested on: Enterococcusfaecium ATCC X043; conditions: code II, BHI agar, 35-37° C., 20 to 24 hours, unit assumed
Method: as §1, §2, §3

[14] = tested on: Mycobacterium smegmatis ATCC 114; conditions: code UU, BHI agar, 35-37° C., 20 to 24 hours, unit assumed
Method: as §1, §2, §3

[15] = tested on: Streptococcus bovis A-5169; conditions: code JJ, BHI agar, 35-37° C., 20 to 24 hours, unit assumed
Method: as §1, §2, §3

[16] = tested on: Staphylococcus aureus 1775; conditions: code GG, BHI agar, 35-37° C., 20 to 24 hours, unit assumed
Method: as §1, §2, §3

[17] = tested on: Streptococcus Pneumonia GYR 1171; conditions: code YY, BHI agar, 35-37° C., 20 to 24 hours, unit assumed
Method: as §1, §2, §3

[18] = tested on: Staphylococcus aureus A-5177; conditions: code BB, BHI agar, 35-37° C., 20 to 24 hours, unit assumed
Method: as §1, §2, §3

[19] = tested on: Staphylococcus aureus A-5278; conditions: code CC, BHI agar, 35-37° C., 20 to 24 hours, unit assumed
Method: as §1, §2, §3

[20] = tested on: Micrococcusluteus ATCC 9341; conditions: code OO, BHI agar, 35-37° C., 20 to 24 hours, unit assumed
Method: as §1, §2, §3

[21] = tested on: Staphylococcus aureus CMX 553; conditions: code FF, BHI agar, 35-37° C., 20 to 24 hours, unit assumed
Method: as §1, §2, §3

[22] = tested on: Streptococcus Pneumonia ATCC 6303; conditions: code XX, BHI agar, 35-37° C., 20 to 24 hours, unit assumed
Method: as §1, §2, §3

[23] = tested on: Streptococcus Pneumonia 5979; conditions: code ZZ, BHI agar, 35-37° C., 20 to 24 hours, unit assumed
Method: as §1, §2, §3

CC[C@H]1OC(=O)[C@H](C)[C@@H](O[C@H]2C[C@@](C)(OC)[C@@H](O)[C@H](C)O2)[C@H](C)[C@@H](O[C@@H]2O[C@H](C)C[C@H](N(C)C)[C@H]2O)[C@](C)(O)C[C@@H](C)C(=O)[C@H](C)[C@@H](O)[C@]1(C)O [Ery. A standard, Erythromycin A, reference compound]
Antibacterial Activity (MIC) [1]: 0.2 µg/mL | Antibacterial Activity (MIC) (Candida albicans CCH 442): > 100 µg/mL | Antibacterial Activity (MIC) (Escherichiacoli DC-2): > 100 µg/mL | Antibacterial Activity (MIC) [2]: > 100 µg/mL | Antibacterial Activity (MIC) [3]: 0.39 µg/mL | Antibacterial Activity (MIC) [4]: 6.2 µg/mL | Antibacterial Activity (MIC) [5]: 0.1 µg/mL | Antibacterial Activity (MIC) (Escherichiacoli SS): 0.78 µg/mL | Antibacterial Activity (MIC) [6]: 0.39 µg/mL | Antibacterial Activity (MIC) [7]: 0.39 µg/mL | Antibacterial Activity (MIC) [8]: 0.05 µg/mL | Antibacterial Activity (MIC) [9]: 0.2 µg/mL | Antibacterial Activity (MIC) [10]: 16 µg/mL | Antibacterial Activity (MIC) [11]: 0.05 µg/mL | Antibacterial Activity (MIC) [12]: 4 µg/mL | Antibacterial Activity (MIC) (Escherichiacoli JUHL): > 100 µg/mL | Antibacterial Activity (MIC) [13]: 0.05 µg/mL | Antibacterial Activity (MIC) [14]: 3.1 µg/mL | Antibacterial Activity (MIC) [15]: 0.02 µg/mL | Antibacterial Activity (MIC) [16]: > 100 µg/mL | Antibacterial Activity (MIC) [17]: 0.06 µg/mL | Antibacterial Activity (MIC) [18]: 3.1 µg/mL | Antibacterial Activity (MIC) [19]: > 100 µg/mL | Antibacterial Activity (MIC) [20]: 0.05 µg/mL | Antibacterial Activity (MIC) [21]: 0.39 µg/mL | Antibacterial Activity (MIC) [22]: 0.06 µg/mL

CCC1OC(=O)C(C)(CC=Cc2ccccc2)C(=O)C(C)C(OC2OC(C)CC(N(C)C)C2O)C(C)(OC)CC(C)C(=O)C(C)C2NC(=O)OC12C (centres unmarked) [Example 1, Compound of formula (II): R^a is CH3, R^b is H, Y and Z together are O, T is —NH—, R is —CH2CH═CH-(phenyl)]
Antibacterial Activity (MIC) [1]: 6.2 µg/mL | Antibacterial Activity (MIC) (Candida albicans CCH 442): 100 µg/mL | Antibacterial Activity (MIC) (Escherichiacoli DC-2): > 100 µg/mL | Antibacterial Activity (MIC) [2]: 50 µg/mL | Antibacterial Activity (MIC) [3]: 50 µg/mL | Antibacterial Activity (MIC) [4]: 12.5 µg/mL | Antibacterial Activity (MIC) [5]: 25 µg/mL | Antibacterial Activity (MIC) (Escherichiacoli SS): 50 µg/mL | Antibacterial Activity (MIC) [6]: 50 µg/mL | Antibacterial Activity (MIC) [23]: 64 µg/mL | Antibacterial Activity (MIC) [7]: 25 µg/mL | Antibacterial Activity (MIC) [8]: 12.5 µg/mL | Antibacterial Activity (MIC) [9]: 25 µg/mL | Antibacterial Activity (MIC) [10]: 16 µg/mL | Antibacterial Activity (MIC) [11]: 12.5 µg/mL | Antibacterial Activity (MIC) [12]: > 128 µg/mL | Antibacterial Activity (MIC) (Escherichiacoli JUHL): > 100 µg/mL | Antibacterial Activity (MIC) [13]: 25 µg/mL | Antibacterial Activity (MIC) [14]: 25 µg/mL | Antibacterial Activity (MIC) [15]: 12.5 µg/mL | Antibacterial Activity (MIC) [16]: 100 µg/mL | Antibacterial Activity (MIC) [17]: 4 µg/mL | Antibacterial Activity (MIC) [18]: 25 µg/mL | Antibacterial Activity (MIC) [19]: 100 µg/mL | Antibacterial Activity (MIC) [20]: 3.1 µg/mL | Antibacterial Activity (MIC) [21]: 50 µg/mL | Antibacterial Activity (MIC) [22]: 8 µg/mL

CCC1OC(=O)C(C)(O)C(=O)C(C)C(OC2OC(C)CC(N(C)C)C2O)C(C)(OCC=Cc2cnc3ccccc3c2)CC(C)C(=O)C(C)C2NC(=O)OC12C (centres unmarked) [Example 8, Compound of formula (II): R^a is —CH2CH═CH-(3-quinolinyl), R^b is H, Y and Z together are O, T is —NH—, R is —OH]
Antibacterial Activity (MIC) [1]: 0.2 µg/mL | Antibacterial Activity (MIC) (Candida albicans CCH 442): > 100 µg/mL | Antibacterial Activity (MIC) (Escherichiacoli DC-2): > 100 µg/mL | Antibacterial Activity (MIC) [2]: 50 µg/mL | Antibacterial Activity (MIC) [3]: 0.39 µg/mL | Antibacterial Activity (MIC) [4]: 0.39 µg/mL | Antibacterial Activity (MIC) [5]: 0.39 µg/mL | Antibacterial Activity (MIC) (Escherichiacoli SS): 0.2 µg/mL | Antibacterial Activity (MIC) [6]: 0.78 µg/mL | Antibacterial Activity (MIC) [23]: 128 µg/mL | Antibacterial Activity (MIC) [7]: 0.39 µg/mL | Antibacterial Activity (MIC) [8]: 0.01 µg/mL | Antibacterial Activity (MIC) [9]: 0.39 µg/mL | Antibacterial Activity (MIC) [10]: 0.5 µg/mL | Antibacterial Activity (MIC) [11]: 0.02 µg/mL | Antibacterial Activity (MIC) [12]: 16 µg/mL | Antibacterial Activity (MIC) (Escherichiacoli JUHL): > 100 µg/mL | Antibacterial Activity (MIC) [13]: 0.2 µg/mL | Antibacterial Activity (MIC) [14]: 3.1 µg/mL | Antibacterial Activity (MIC) [15]: 0.02 µg/mL | Antibacterial Activity (MIC) [16]: > 100 µg/mL | Antibacterial Activity (MIC) [17]: 0.03 µg/mL | Antibacterial Activity (MIC) [18]: 0.39 µg/mL | Antibacterial Activity (MIC) [19]: > 100 µg/mL | Antibacterial Activity (MIC) [20]: 0.02 µg/mL | Antibacterial Activity (MIC) [21]: 0.78 µg/mL | Antibacterial Activity (MIC) [22]: 0.03 µg/mL

C#CCOC1(C)CC(C)C(=O)C(C)C2NC(=O)OC2(C)C(CC)OC(=O)C(C)(CC=Cc2ccccc2)C(=O)C(C)C1OC1OC(C)CC(N(C)C)C1O (centres unmarked) [Example 9, Compound of formula (II): R^a is —CH2C═CH, R^b is H, Y and Z together are O, T is —NH—, R is —CH2CH═CH-(phenyl)]
Antibacterial Activity (MIC) [1]: 3.1 µg/mL | Antibacterial Activity (MIC) (Candida albicans CCH 442): > 100 µg/mL | Antibacterial Activity (MIC) (Escherichiacoli DC-2): > 100 µg/mL | Antibacterial Activity (MIC) [2]: 50 µg/mL | Antibacterial Activity (MIC) [3]: 6.2 µg/mL | Antibacterial Activity (MIC) [4]: 3.1 µg/mL | Antibacterial Activity (MIC) [5]: 1.56 µg/mL | Antibacterial Activity (MIC) (Escherichiacoli SS): 6.2 µg/mL | Antibacterial Activity (MIC) [6]: 12.5 µg/mL | Antibacterial Activity (MIC) [23]: 64 µg/mL | Antibacterial Activity (MIC) [7]: 3.1 µg/mL | Antibacterial Activity (MIC) [8]: 1.56 µg/mL | Antibacterial Activity (MIC) [9]: 3.1 µg/mL | Antibacterial Activity (MIC) [10]: 8 µg/mL | Antibacterial Activity (MIC) [11]: 1.56 µg/mL | Antibacterial Activity (MIC) [12]: > 64 µg/mL | Antibacterial Activity (MIC) (Escherichiacoli JUHL): > 100 µg/mL | Antibacterial Activity (MIC) [13]: 3.1 µg/mL | Antibacterial Activity (MIC) [14]: 12.5 µg/mL | Antibacterial Activity (MIC) [15]: 0.78 µg/mL | Antibacterial Activity (MIC) [16]: > 100 µg/mL | Antibacterial Activity (MIC) [17]: 1 µg/mL | Antibacterial Activity (MIC) [18]: 3.1 µg/mL | Antibacterial Activity (MIC) [19]: > 100 µg/mL | Antibacterial Activity (MIC) [20]: 1.56 µg/mL | Antibacterial Activity (MIC) [21]: 3.1 µg/mL | Antibacterial Activity (MIC) [22]: 1 µg/mL
